Results: patent US11787785B2 (NOVARTIS AG, priority 2021, dated 2023)

Molecular target: T1, WIZ protein (HiBit-WIZ fusion protein) (Homo sapiens, UniProt O95785+Q96SW2)
T1 construct: expressed in transfected cells
Assay: Quantification of WIZ protein levels in HiBit tag fusion protein assay (WIZ HiBit assay in 293T cells)
Type: cell-based
Set-up: remaining activity / Dmax: dose or concentration left out as unconfirmed
Settings: for Dmax at 25 µM: 100 − Amax; for Dmax at 25 µM / remaining activity at 25 µM: 293T cells; for remaining activity at 25 µM: DMSO-normalized, curve-fitted percentage of WIZ-HiBit remaining at 25 uM; for DC50: WIZ HiBit assay in 293T cells, 10-point, 5-fold dose response, highest concentration 25 μM, about 18 hours, read-out: WIZ AC50
Outline: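 Luminescence after LgBit complementation quantified remaining HiBit-WIZ in lysates of single-copy stable 293T lines. Cells dosed ~18 h at 37 °C with 10-point, 5-fold dilutions (highest 25 μM); DMSO set to 100%, fitted curve gave % remaining at 25 μM (Amax).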

[1] = HEK-293T, read-out: % degradation of WIZ (100 − Amax)

T1 sequence (O95785 whole entry, the tested form may be a part): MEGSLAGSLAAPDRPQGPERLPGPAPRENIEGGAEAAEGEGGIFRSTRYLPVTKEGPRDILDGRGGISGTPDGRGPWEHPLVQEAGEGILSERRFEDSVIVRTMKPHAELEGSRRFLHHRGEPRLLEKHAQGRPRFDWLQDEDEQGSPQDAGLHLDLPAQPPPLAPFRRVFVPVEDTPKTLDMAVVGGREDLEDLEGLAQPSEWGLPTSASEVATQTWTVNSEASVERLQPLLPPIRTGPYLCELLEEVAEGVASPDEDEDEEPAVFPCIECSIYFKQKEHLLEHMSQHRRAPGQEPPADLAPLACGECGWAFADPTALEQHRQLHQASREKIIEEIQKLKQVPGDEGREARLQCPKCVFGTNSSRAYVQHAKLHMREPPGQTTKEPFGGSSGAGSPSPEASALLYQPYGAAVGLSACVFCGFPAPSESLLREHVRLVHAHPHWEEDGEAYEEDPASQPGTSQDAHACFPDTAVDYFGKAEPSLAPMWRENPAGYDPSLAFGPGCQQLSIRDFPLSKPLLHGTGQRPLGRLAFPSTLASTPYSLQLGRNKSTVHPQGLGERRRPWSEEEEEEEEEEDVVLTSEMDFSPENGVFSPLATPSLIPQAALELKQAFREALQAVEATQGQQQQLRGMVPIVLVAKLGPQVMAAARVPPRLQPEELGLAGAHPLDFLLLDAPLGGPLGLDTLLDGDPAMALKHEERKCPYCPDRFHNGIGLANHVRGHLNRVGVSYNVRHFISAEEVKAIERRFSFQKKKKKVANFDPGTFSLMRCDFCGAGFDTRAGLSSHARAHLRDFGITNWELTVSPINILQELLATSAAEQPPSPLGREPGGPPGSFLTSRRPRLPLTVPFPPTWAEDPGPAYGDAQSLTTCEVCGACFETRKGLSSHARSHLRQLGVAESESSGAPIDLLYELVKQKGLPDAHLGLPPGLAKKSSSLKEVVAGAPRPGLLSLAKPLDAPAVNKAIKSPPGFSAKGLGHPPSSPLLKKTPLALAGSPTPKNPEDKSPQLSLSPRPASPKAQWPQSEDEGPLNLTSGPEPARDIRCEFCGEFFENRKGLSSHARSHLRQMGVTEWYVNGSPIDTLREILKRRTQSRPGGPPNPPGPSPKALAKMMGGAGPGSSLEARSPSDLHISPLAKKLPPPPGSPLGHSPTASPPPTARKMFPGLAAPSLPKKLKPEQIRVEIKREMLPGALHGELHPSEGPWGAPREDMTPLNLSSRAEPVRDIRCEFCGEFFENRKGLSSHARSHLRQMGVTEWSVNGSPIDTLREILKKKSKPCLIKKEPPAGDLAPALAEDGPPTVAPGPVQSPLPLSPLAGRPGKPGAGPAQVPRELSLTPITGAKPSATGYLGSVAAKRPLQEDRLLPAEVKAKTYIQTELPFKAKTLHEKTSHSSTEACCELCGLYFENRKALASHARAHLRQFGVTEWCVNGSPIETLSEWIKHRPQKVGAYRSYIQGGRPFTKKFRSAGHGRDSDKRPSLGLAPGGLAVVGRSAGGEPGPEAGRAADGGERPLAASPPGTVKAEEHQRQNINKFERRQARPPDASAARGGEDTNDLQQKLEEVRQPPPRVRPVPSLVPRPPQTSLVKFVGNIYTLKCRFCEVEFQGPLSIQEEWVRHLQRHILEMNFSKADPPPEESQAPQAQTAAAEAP
T1 sequence (Q96SW2 whole entry, the tested form may be a part): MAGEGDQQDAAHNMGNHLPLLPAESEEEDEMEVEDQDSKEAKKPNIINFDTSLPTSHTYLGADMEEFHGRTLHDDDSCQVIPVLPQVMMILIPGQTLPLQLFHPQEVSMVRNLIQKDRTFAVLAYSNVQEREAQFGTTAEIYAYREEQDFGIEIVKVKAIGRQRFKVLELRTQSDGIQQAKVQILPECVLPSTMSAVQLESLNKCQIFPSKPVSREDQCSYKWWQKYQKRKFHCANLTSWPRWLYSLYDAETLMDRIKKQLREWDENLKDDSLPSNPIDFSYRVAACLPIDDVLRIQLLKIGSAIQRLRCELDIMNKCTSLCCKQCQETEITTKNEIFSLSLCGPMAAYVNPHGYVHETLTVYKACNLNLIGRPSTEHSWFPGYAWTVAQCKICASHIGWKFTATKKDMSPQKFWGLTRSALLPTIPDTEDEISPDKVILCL
T1 sequence (Q16531 whole entry partner, the tested form may be a part): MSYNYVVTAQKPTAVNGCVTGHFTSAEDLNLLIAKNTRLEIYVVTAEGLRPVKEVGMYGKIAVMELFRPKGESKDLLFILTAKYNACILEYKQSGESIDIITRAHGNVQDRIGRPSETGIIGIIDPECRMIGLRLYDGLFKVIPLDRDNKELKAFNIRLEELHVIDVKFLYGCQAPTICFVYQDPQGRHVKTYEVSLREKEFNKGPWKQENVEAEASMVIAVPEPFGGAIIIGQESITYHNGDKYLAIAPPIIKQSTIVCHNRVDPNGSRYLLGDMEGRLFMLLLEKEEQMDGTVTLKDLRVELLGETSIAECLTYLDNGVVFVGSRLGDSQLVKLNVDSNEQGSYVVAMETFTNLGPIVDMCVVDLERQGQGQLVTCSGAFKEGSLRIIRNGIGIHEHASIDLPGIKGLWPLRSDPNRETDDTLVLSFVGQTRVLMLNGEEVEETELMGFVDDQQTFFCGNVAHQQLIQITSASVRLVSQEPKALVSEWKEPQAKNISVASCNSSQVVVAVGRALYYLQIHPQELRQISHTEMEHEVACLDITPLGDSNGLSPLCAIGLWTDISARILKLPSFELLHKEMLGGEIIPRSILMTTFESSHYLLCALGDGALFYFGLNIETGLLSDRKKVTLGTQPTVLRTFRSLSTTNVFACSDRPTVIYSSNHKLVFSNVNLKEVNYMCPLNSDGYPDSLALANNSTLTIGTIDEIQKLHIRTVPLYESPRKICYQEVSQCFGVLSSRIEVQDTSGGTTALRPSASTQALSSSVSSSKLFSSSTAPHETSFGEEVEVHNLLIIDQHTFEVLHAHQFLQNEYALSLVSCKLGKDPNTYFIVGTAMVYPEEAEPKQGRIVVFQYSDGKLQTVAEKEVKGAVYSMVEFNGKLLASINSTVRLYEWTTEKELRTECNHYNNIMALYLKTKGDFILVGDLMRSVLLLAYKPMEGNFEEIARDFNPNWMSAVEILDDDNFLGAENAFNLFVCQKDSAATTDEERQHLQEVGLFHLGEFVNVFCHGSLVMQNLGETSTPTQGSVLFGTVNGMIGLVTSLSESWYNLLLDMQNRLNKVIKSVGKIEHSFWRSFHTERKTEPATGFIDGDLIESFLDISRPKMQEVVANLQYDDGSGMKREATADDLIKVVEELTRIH

SMILES | Dmax at 25 µM [1] | remaining activity at 25 µM (HEK-293T, read-out: WIZ Amax) | DC50 | Dmax [1] | remaining activity (HEK-293T, read-out: WIZ Amax)
O=C1CCN(c2cnn3ccc(CC4CCN(CC5CCCO5)CC4)cc23)C(=O)N1 (stereo not drawn) [Example 15, 1-(5-((1-((tetrahydrofuran-2-yl)methyl)piperidin-4-yl)methyl)pyrazolo[1,5-a]pyridin-3-yl)dihydropyrimidine-2,4(1H,3H)-dione] | 71% | 29% | 0.523 µM | – | –
O=C1CCN(c2cnn3ccc(CN4CCN(CC5CCOC5)CC4)cc23)C(=O)N1 (stereo not drawn) [Example 177] | 77% | 23% | 0.106 µM | – | –
O=C1CCN(c2cnn3ccc(CC4CCN(C(=O)Oc5ccccc5)CC4)cc23)C(=O)N1 [Example 94] | 62% | 38% | 3.99 µM | – | –
Cn1cnc(CN2CCN(Cc3ccn4ncc(N5CCC(=O)NC5=O)c4c3)CC2)c1 [Example 196, 1-(5-((4-((1-methyl-1H-imidazol-4-yl)methyl)piperazin-1-yl)methyl)pyrazolo[1,5-a]pyridin-3-yl)dihydropyrimidine-2,4(1H,3H)-dione] | 41% | 59% | 3.82 µM | – | –
O=C1CCN(c2cnn3ccc(CC4CCN(Cc5ccccc5Cl)CC4)cc23)C(=O)N1 [Example 59, 1-(5-((1-(2-chlorobenzyl)piperidin-4-yl)methyl)pyrazolo[1,5-a]pyridin-3-yl)dihydropyrimidine-2,4(1H,3H)-dione] | 58% | 42% | 0.098 µM | – | –
O=C1CCN(c2cnn3ccc(CC4CCN(CC5CCCOC5)CC4)cc23)C(=O)N1 (stereo not drawn) [Example 7, 1-(5-((1-((tetrahydro-2H-pyran-3-yl)methyl)piperidin-4-yl)methyl)pyrazolo[1,5-a]pyridin-3-yl)dihydropyrimidine-2,4(1H,3H)-dione] | 86% | 14% | 0.023 µM | – | –
CC(C)CN1CCCN(Cc2ccn3ncc(N4CCC(=O)NC4=O)c3c2)CC1 [Example 250, 1-(5-((4-isobutyl-1,4-diazepan-1-yl)methyl)pyrazolo[1,5-a]pyridin-3-yl)dihydropyrimidine-2,4(1H,3H)-dione] | 41% | 59% | 1.35 µM | – | –
COc1cccc(CN2CCC(Cc3ccn4ncc(N5CCC(=O)NC5=O)c4c3)CC2)c1 [Example 40, 1-(5-((1-(3-methoxybenzyl)piperidin-4-yl)methyl)pyrazolo[1,5-a]pyridin-3-yl)dihydropyrimidine-2,4(1H,3H)-dione] | 70% | 30% | 0.052 µM | – | –
O=C1CCN(c2cnn3ccc(CN4CCN5CCCC[C@@H]5C4)cc23)C(=O)N1 [Example 313, (R)-1-(5-((octahydro-2H-pyrido[1,2-a]pyrazin-2-yl)methyl)pyrazolo[1,5-a]pyridin-3-yl)dihydropyrimidine-2,4(1H,3H)-dione] | 70% | 30% | 0.085 µM | – | –
O=C1CCN(c2cnn3ccc(CC4CCN(CC5CCNCC5)CC4)cc23)C(=O)N1 [Example 63] | 36% | 64% | > 25 µM | – | –
O=C1CCN(c2cnn3ccc(CC4CNC4)cc23)C(=O)N1 [Example 133, 1-(5-(azetidin-3-ylmethyl)pyrazolo[1,5-a]pyridin-3-yl)dihydropyrimidine-2,4(1H,3H)-dione] | 21% | 79% | 4.8 µM | – | –
O=C1CCN(c2cnn3ccc(CC4C[C@H]5CC[C@@H](C4)N5CC4CCCCC4)cc23)C(=O)N1 (stereo partly drawn) [Example 66, 1-(5-(((1R,5S)-8-(cyclohexylmethyl)-8-azabicyclo[3.2.1]octan-3-yl)methyl)pyrazolo[1,5-a]pyridin-3-yl)dihydropyrimidine-2,4(1H,3H)-dione] | 72% | 28% | 0.195 µM | – | –
COC[C@H]1CN(Cc2ccn3ncc(N4CCC(=O)NC4=O)c3c2)CCN1CC(C)C [Example 245, (R)-1-(5-((4-isobutyl-3-(methoxymethyl)piperazin-1-yl)methyl)pyrazolo[1,5-a]pyridin-3-yl)dihydropyrimidine-2,4(1H,3H)-dione] | 52% | 48% | 0.351 µM | – | –
CC[C@H]1CN(Cc2ccn3ncc(N4CCC(=O)NC4=O)c3c2)CCN1CC(C)C [Example 228, (S)-1-(5-((3-ethyl-4-isobutylpiperazin-1-yl)methyl)pyrazolo[1,5-a]pyridin-3-yl)dihydropyrimidine-2,4(1H,3H)-dione] | 55% | 45% | 0.704 µM | – | –
O=C1CCN(c2cnn3ccc(CC4CCN(CCC5CCOCC5)CC4)cc23)C(=O)N1 [Example 11, 1-(5-((1-(2-(tetrahydro-2H-pyran-4-yl)ethyl)piperidin-4-yl)methyl)pyrazolo[1,5-a]pyridin-3-yl)dihydropyrimidine-2,4(1H,3H)-dione] | 84% | 16% | 0.055 µM | – | –
O=C1CCN(c2cnn3ccc(CN4CCN(C(=O)C5(C(F)(F)F)CC5)CC4)cc23)C(=O)N1 [Example 184, 1-(5-((4-(1-(trifluoromethyl)cyclopropane-1-carbonyl)piperazin-1-yl)methyl)pyrazolo[1,5-a]pyridin-3-yl)dihydropyrimidine-2,4(1H,3H)-dione] | 29% | 71% | 1.63 µM | – | –
O=C1CCN(c2cnn3ccc(CN4CCN(Cc5ccc(F)cc5)CC4)cc23)C(=O)N1 [Example 168] | 56% | 44% | 0.127 µM | – | –
CC(C)CN1CCC(F)(Cc2ccn3ncc(N4CCC(=O)NC4=O)c3c2)CC1 [Example 124, 1-(5-((4-fluoro-1-isobutylpiperidin-4-yl)methyl)pyrazolo[1,5-a]pyridin-3-yl)dihydropyrimidine-2,4(1H,3H)-dione] | 58% | 42% | 0.502 µM | – | –
O=C1CCN(c2cnn3ccc(CC4CCN(Cc5cc(F)cc(F)c5)CC4)cc23)C(=O)N1 [Example 44, 1-(5-((1-(3,5-difluorobenzyl)piperidin-4-yl)methyl)pyrazolo[1,5-a]pyridin-3-yl)dihydropyrimidine-2,4(1H,3H)-dione] | 70% | 30% | 0.043 µM | – | –
C[C@H]1C[C@H](Cc2ccn3ncc(-n4ccc(=O)[nH]c4=O)c3c2)CCN1C(=O)C1CC1 [Example 355, 1-(5-(((2S,4R)-1-(cyclopropanecarbonyl)-2-methylpiperidin-4-yl)methyl)pyrazolo[1,5-a]pyridin-3-yl)pyrimidine-2,4(1H,3H)-dione] | 82% | 18% | 0.183 µM | – | –
Cc1ccc(F)cc1CN1CCC(Cc2ccn3ncc(N4CCC(=O)NC4=O)c3c2)CC1 [Example 58, 1-(5-((1-(5-fluoro-2-methylbenzyl)piperidin-4-yl)methyl)pyrazolo[1,5-a]pyridin-3-yl)dihydropyrimidine-2,4(1H,3H)-dione] | 63% | 37% | 0.033 µM | – | –
CC(c1cccc(F)c1)N1CCC(Cc2ccn3ncc(N4CCC(=O)NC4=O)c3c2)CC1 (stereo not drawn) [Example 48, 1-(5-((1-(1-(3-fluorophenyl)ethyl)piperidin-4-yl)methyl)pyrazolo[1,5-a]pyridin-3-yl)dihydropyrimidine-2,4(1H,3H)-dione] | 68% | 32% | 0.061 µM | – | –
CO[C@H]1C[C@@H](CN2CCC(Cc3ccn4ncc(N5CCC(=O)NC5=O)c4c3)CC2)C1 [Example 300, 1-(5-((1-(((1s,3s)-3-methoxycyclobutyl)methyl)piperidin-4-yl)methyl)pyrazolo[1,5-a]pyridin-3-yl)dihydropyrimidine-2,4(1H,3H)-dione] | 82% | 18% | 0.003 µM | – | –
CC(C)CC(C)(C)N1CCC(Cc2ccn3ncc(N4CCC(=O)NC4=O)c3c2)CC1 [Example 139, 1-(5-((1-(2,4-dimethylpentan-2-yl)piperidin-4-yl)methyl)pyrazolo[1,5-a]pyridin-3-yl)dihydropyrimidine-2,4(1H,3H)-dione] | 83% | 17% | 0.003 µM | – | –
CC(C)(F)CN1CCC(Cc2ccn3ncc(N4CCC(=O)NC4=O)c3c2)CC1 [Example 39, 1-(5-((1-(2-fluoro-2-methylpropyl)piperidin-4-yl)methyl)pyrazolo[1,5-a]pyridin-3-yl)dihydropyrimidine-2,4(1H,3H)-dione] | 71% | 29% | 0.083 µM | – | –
C[C@H]1CN(Cc2ccn3ncc(N4CCC(=O)NC4=O)c3c2)CCN1C1CC2(COC2)C1 [Example 332] | 49% | 51% | 22 µM | – | –
O=C1CCN(c2cnn3ccc(CN4C[C@@H]5C[C@H]4CN5Cc4cccnc4)cc23)C(=O)N1 [Example 237, 1-(5-(((1S,4S)-5-(pyridin-3-ylmethyl)-2,5-diazabicyclo[2.2.1]heptan-2-yl)methyl)pyrazolo[1,5-a]pyridin-3-yl)dihydropyrimidine-2,4(1H,3H)-dione] | 6% | 94% | > 25 µM | – | –
CC(=O)N1CCC(Cc2ccn3ncc(N4CCC(=O)NC4=O)c3c2)CC1 [Example 104, 1-(5-((1-acetylpiperidin-4-yl)methyl)pyrazolo[1,5-a]pyridin-3-yl)dihydropyrimidine-2,4(1H,3H)-dione] | – | – | 7.36 µM | 62% | 38%
